This is an account of results in article PMC13193874, “Targeting PIP5K ameliorates hepatic cancer by inhibiting PI3K/AKT and the autophagy mechanism and enhancing ROS-mediated apoptosis” (Frontiers in Pharmacology, 2026).

In this assay the target is PIP5K1B (Homo sapiens, UniProt O14986). The assay is described as follows: cell-free kinase assay (Thermo Fisher SelectScreen, ADP detection), 10-point dose response; […] inhibition at […]. The class given is biochemical.
PIP5K1B, sequence (O14986 whole entry): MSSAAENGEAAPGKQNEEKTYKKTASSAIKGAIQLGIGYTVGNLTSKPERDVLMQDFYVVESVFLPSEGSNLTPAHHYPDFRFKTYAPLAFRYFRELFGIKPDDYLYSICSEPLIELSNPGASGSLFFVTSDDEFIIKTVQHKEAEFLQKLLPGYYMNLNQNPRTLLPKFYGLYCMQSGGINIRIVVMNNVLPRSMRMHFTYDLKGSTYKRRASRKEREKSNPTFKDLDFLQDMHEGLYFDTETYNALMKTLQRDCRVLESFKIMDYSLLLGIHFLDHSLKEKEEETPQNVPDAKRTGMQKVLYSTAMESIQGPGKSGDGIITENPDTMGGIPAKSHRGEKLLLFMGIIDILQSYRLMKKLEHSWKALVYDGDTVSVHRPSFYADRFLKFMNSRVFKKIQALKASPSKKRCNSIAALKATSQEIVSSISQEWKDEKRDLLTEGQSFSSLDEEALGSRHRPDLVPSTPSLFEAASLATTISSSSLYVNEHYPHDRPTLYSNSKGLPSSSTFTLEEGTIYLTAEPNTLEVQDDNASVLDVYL

By IC50 is commonly meant the concentration at which inhibition is half-maximal. Read a low IC50 as greater potency in that assay. Regarding `Fc1ccc(Nc2nc(Nc3ccc(-c4nc5ccccc5[nH]4)cc3)nc(N3CCOCC3)n2)cc1` [15g, N2-[4-(1H-benzimidazol-2-yl)phenyl]-N4-(4-fluorophenyl)-6-(4-morpholinyl)-1,3,5-triazine-2,4-diamine], it took 281 nM to reach half-maximal inhibition (IC50).
